One experiment deals with angiotensin II receptor. The experiment can be described thus: Angiotensin II receptor binding assay ([3H] angiotensin II). On the set-up: species or system rat (Sprague-Dawley adrenal cortex/medulla; Wistar liver). As to conditions: 25° C., 60 minutes, test concentration not given. As to the method:
1. Angiotensin II receptor binding assay
In accordance with the procedure disclosed in Chiu, A. T. et al., Eur. J. Pharm., 157, 13(1981), a ligand marked with a radioisotope was reacted with an angiotensin II receptor and the reactant was filtered with a glass fiber to remove unreacted ligand. After washing the filter, the amount of the remaining isotope was measured to determine the binding activity of the ligand, as described below in detail.
Sprague-Dawley rats and Wistar rats of 250 to 350 g (from The Korea Research Institute of Chemical Technology) were tested and the test procedures were carried out at 4° C., unless otherwise specified. Adrenal gland was separated from the Sprague-Dawley rats (liver, in the case of Wistar rats) into cortex and medulla. The separated adrenal cortex and medulla were washed with a sucrose buffer solution (0.2M sucrose, 1 mM EDTA, 10 mM Tris, Ph 7.2) and homogenized in the same buffer solution by using a Teflon pestle and a Brinkmann homogenizer. The homogenates were centrifuged at 3,000× g for 10 minutes to remove precipitates and further centrifuged at 12,000× g for 13 minutes. The final supernatants were centrifuged at 102,000× g for 1 hour to obtain precipitates, which were washed with a Tris buffer solution (50 mM Tris, 5 mM MgCl2, pH 7.2) and recentrifuged at 102,000× g for 1 hour. The resulting precipitates were immediately processed at the following step or stored at -70° C.
The precipitates were suspended in a Tris buffer solution. The amount of protein was determined by using a Bio-Rad DC protein analyzing kit and the protein concentration was adjusted to the amounts of: 0.2 to 0.3 mg/ml (Sprague-Dawley rat: adrenal cortex), 1.5 to 2.0 mg/ml (Sprague-Dawley rat: adrenal medulla), and 1.5 to 2.0 mg/ml (Wistar rat: liver). To the suspension, bovine serum albumin(BSA) was added to a concentration of 0.25 wt % and the resultant was immediately processed at the following step or stored at -70° C.
50 μl (based on ligand) of [^3 H] angiotensin II (NEN, NET-446) and 10 μl of each of the test compounds with various concentrations were added to the buffer solution (50 mM Tris (pH 7.2), 5 mM MgCl2, 0.25% BSA) to adjust the final volume to be 0.5 ml. 100 μl of the receptor suspension was added thereto and the resulting solution was reacted for 60 minutes while stirring in a water bath at 25° C. 3 ml of cold buffer solution for analysis was added to cease the reaction. The isotope which was bound to the receptor was isolated from the resultant by using Brandel Cell Harvester System with Whatman glass fiber GF/C. After washing the filter, the radioactivity of the filter was determined by using a liquid scintillation counter. Binding inhibition(%) of the test compound was calculated as follows:
Binding Inhibition(%)=[{(T-B)-(S-B)}/(T-B)]×100
wherein T is the radioactivity (cpm) of the reaction product untreated with the test compound, S is the radioactivity (cpm) of the reaction product treated with the test compound, and B is the radioactivity (cpm) of blank test.

Experiment [1] has as its system renal hypertensive rat. Put plainly: Blood pressure lowering effect in renal hypertension. The class given is in vivo, Sprague-Dawley rat. As to conditions: intravenous or oral (not specified). An excerpt: (§1) To induce renal hypertension, left renal artery of 4 week-old male Sprague-Dawley rat (from The Korea Research Institute of Chemical Technology) was ligated. The rat was anesthetized with ether and the surgical region on the left abdomen of the rat was shaved, disinfected, and then incised about 1 cm vertically. The renal artery near abdominal aorta was isolated carefully from surrounding tissues and veins, and then ligated completely with a suture (4/0 sterile surgical silk). The muscular strata and skin of the surgical area were sutured with a suture (4/0 sterile surgical silk). The surgical region was disinfected to prevent infection and thereafter, 200 to 250 mg/kg/day of cephazolin sodium was injected intramuscularly for 2 days. 6 to 8 days after the ligation, rats showing systolic pressure of more than 180 mmHg were selected for renal hypertension test. The blood pressure was determined by a tail-cuff method from the tail under unanesthetized condition (Gerold, M. et al., Arzneimittel-Forsch., 18, 1285(1968)).
(§2) Each of the compounds to be tested was administered intravenously or orally into the renal hypertensive rat. The blood pressure of the rat was determined by direct method (Chiu, A. T. et al., J. Pharmacol. Exp. Ther., 250, 867(1989)) using a catheter. The rat was anesthetized with ketamine hydrochloride (125 mg/kg, i.p.) and a catheter was filled with saline and inserted into a carotid artery and […]. The surgical area was sutured with a metal clip. The rat was relaxed at least 3 hours and the catheter in the carotid artery was adapted to an isotec pressure transducer to determine the blood pressure and heart rate with a physiograph (Linearcorder WR3310). After the blood pressure was stabilized, the test compound was administered intravenously or orally. For intravenous administration, the administered volume and washing volume were 1.0 ml/kg and 0.2 ml, respectively. The blood pressure and heart rate were measured in regular intervals up to 24 hours after the administration of the test compound and compared with those measured after the administration of the control compound Losartan.
(§3) The test compound was dissolved in 0.05N KOH for intravenous administration and suspended in Tween 80 for oral administration.

The test system of experiment [2] is unanesthetized dogs. Put plainly: Maximum blood pressure lowering effect in unanesthetized dogs at different amounts. The class given is in vivo, dog. As to the method: (§4) A number of dog was fed freely in a feeding room and those weighing 7 to 12 kg in good health were selected regardless of their gender.
(§5) The test dog was anesthetized with 30 mg/kg of pentobarbital sodium by intravenous injection and the left femoral artery and femoral vein were separated carefully. Silicone catheter, specially prepared and filled with saline treated with heparin (1,000 IU/ml), was cannulated into the blood vessels. After the surgery, the dog was constrained to measure the blood pressure continuously with Gould 2000 physiograph adapted to a Grass P23XL pressure transducer; and the heart rate was monitored with ECG/Biotacho amplifier. The dog was tested at least 2 days after the surgery.
10 mg/kg of furosemide was injected intramuscularly 18 hours (in case of intravenous injection, 2 hours) before the beginning of the test (administration of the test compound) to improve the activity of renin in blood plasma. After the injection of furosemide, neither food nor water was provided. The test compound was suspended in Tween 80 and administered in an amount of 20 mg/kg orally. The blood pressure and heart rate were measured up to 8 hours after the administration of each test compound.
The maximum blood pressure lowering effect of the present compounds and the control compounds were determined in different amounts of administration using the same method as (i) and the results are given in Table 4.

In experiment [3] the test system is unanesthetized dogs. The experiment can be described thus: Blood pressure variation with time in unanesthetized dogs. The class given is in vivo, dog. As to conditions: for Maximum Blood Pressure Lowering Effect: 3 mg, oral. As to the method: as §4, §5
10 mg/kg of furosemide was injected intramuscularly 18 hours (in case of intravenous injection, 2 hours) before the beginning of the test (administration of the test compound) to improve the activity of renin in blood plasma. After the injection of furosemide, neither food nor water was provided. […] The blood pressure and heart rate were measured up to 8 hours after the administration of each test compound.

In experiment [4] the test system is renal hypertensive rat. Put plainly: Blood pressure lowering effect with respect to dose (renal hypertensive rats). The class given is in vivo, Sprague-Dawley rat. As to conditions: oral.
From the text: as §1, §2, §3
The present compounds, Losartan(Dup 753) and the Merck compound were administrated orally to rats in 10, 3 and 1 mg/kg under the same condition as in (ii) and the blood pressure lowering effect was determined.

Take `CCCCc1nc2cc(-c3cc[n+]([O-])cc3)c(CO)nc2n1Cc1ccc(-c2ccccc2-c2nn[nH]n2)cc1` [Example 2, 2-Butyl-5-hyroxymethyl-6-(1-oxy-pyridin-4-yl)-3-[2'-(1H-tetrazol-5-yl)-biphenyl-4-ylmethyl]-3H-imidazo[4,5-b]pyridine]: the “Binding Inhibition” value in the experiment with angiotensin II receptor is 96.9%.

In the case of `CCCCc1nc2cc(-c3ccc[n+]([O-])c3)c(C)nc2n1Cc1ccc(-c2ccccc2-c2nn[nH]n2)cc1` [Example 6, 2-Butyl-5-methyl-6-(1-oxy-pyridin-3-yl)-3-[2'-(1H-tetrazol-5-yl)-biphenyl-4-ylmethyl]-3H-imidazo[4,5-b]pyridine], the “Maximum Blood Pressure Lowering Effect” value with renal hypertensive rat [1] (Amount 3 mg) is on record as -38%; in the experiment on unanesthetized dogs [2] (0.3 mg/kg) it was -9%; in the experiment with unanesthetized dogs [2] (1 mg/kg), -12%. Moreover, in the experiment with angiotensin II receptor, the “Binding Inhibition” value turned out to be 94.6%.

Turning to `CCCCc1nc2cc(-c3cccc[n+]3[O-])c(C(=O)N(CC)CC)nc2n1Cc1ccc(-c2ccccc2-c2nn[nH]n2)cc1` [Example 5, 2-Butyl-6-(1-oxy-pyridin-2-yl)-3-[2'-(1H-tetrazol-5-yl)-biphenyl-4-ylmethyl]-3H-imidazo[4,5-b]pyridin-5-carboxylate Diethylamide], in the experiment with angiotensin II receptor, the “Binding Inhibition” value was found to be 60.3%.

`CCCCc1nc2cc(-c3cccc[n+]3[O-])c(C(=O)OC)nc2n1Cc1ccc(-c2ccccc2-c2nn[nH]n2)cc1` [Example 4, 2-Butyl-5-methoxycarbonyl-6-(1-oxy-pyridin-2-yl)-3-[2'-(1H-tetrazol-5-yl)-biphenyl-4-ylmethyl]-3H-imidazo[4,5-b]pyridine]: in the experiment with angiotensin II receptor, the “Binding Inhibition” value turned out to be 92.1%.

For the compound `CCCCc1nc(Cl)c(CO)n1Cc1ccc(-c2ccccc2-c2nn[nH]n2)cc1` [Losartan (Dup 753), Losartan, reference compound], the “Maximum Blood Pressure Lowering Effect” value is -27% in the experiment on renal hypertensive rat [1] (Amount 10 mg); -11.0% in the experiment on unanesthetized dogs [3] (0.5 hr); -12.3% in the experiment with unanesthetized dogs [3] (1 hr); -12.8% in the experiment on unanesthetized dogs [3] (2 hr); -9.9% in the experiment with unanesthetized dogs [3] (4 hr); -10.1% in the experiment on unanesthetized dogs [3] (6 hr). Also, the “Maximum Blood Pressure Lowering Effect” value is -8.2% in the experiment on unanesthetized dogs [3] (8 hr); -13% in the experiment on unanesthetized dogs [2] (3 mg/kg); -23% in the experiment on unanesthetized dogs [2] (10 mg/kg); -30% with renal hypertensive rat [4] (3 mg/kg); -46% with renal hypertensive rat [4] (10 mg/kg). Further, the “time for which the maximum blood pressure lowering effect lasted after the administration” value in the experiment on unanesthetized dogs [3] (Table 3, present compounds 1.0 mg, control compound 3 mg) was “up to 2 hours”. In addition, the “Binding Inhibition” value with angiotensin II receptor is on record as 48.0%.

On to `CCCCc1nc2cc(-c3cc[n+]([O-])cc3)c(C)nc2n1Cc1ccc(-c2ccccc2-c2nn[nH]n2)cc1` [Example 7, 2-Butyl-5-methyl-6-(1-oxy-pyridin-4-yl)-3-[2'-(1H-tetrazol-5-yl)-biphenyl-4-ylmethyl]-3H-imidazo[4,5-b]pyridine], for which, in the experiment with angiotensin II receptor, the “Binding Inhibition” value is given as 95.5%.

These data come from patent publication US5691348A, “Pyridyl imidazole derivatives and processes for the preparation thereof” (Daewoo Electronics Co., Ltd., priority 1994, dated 1997).
